Our source for the IC50 values is US20050197338A1, “Substituted pyrazole urea compounds for the treatment of inflammation” (priority 2003, published 2005).

A value given as a limit tells only on which side of the number the result lay.

In this assay the target is T1, human IKK-2 (rhIKK-2 homodimer) (Homo sapiens, UniProt O14920).
T1 construct: FLAG (DYKDDDDKD) (C); made in house; host or cells: insect cells (baculovirus, pFastBac)
T1 sequence (O14920 1-756): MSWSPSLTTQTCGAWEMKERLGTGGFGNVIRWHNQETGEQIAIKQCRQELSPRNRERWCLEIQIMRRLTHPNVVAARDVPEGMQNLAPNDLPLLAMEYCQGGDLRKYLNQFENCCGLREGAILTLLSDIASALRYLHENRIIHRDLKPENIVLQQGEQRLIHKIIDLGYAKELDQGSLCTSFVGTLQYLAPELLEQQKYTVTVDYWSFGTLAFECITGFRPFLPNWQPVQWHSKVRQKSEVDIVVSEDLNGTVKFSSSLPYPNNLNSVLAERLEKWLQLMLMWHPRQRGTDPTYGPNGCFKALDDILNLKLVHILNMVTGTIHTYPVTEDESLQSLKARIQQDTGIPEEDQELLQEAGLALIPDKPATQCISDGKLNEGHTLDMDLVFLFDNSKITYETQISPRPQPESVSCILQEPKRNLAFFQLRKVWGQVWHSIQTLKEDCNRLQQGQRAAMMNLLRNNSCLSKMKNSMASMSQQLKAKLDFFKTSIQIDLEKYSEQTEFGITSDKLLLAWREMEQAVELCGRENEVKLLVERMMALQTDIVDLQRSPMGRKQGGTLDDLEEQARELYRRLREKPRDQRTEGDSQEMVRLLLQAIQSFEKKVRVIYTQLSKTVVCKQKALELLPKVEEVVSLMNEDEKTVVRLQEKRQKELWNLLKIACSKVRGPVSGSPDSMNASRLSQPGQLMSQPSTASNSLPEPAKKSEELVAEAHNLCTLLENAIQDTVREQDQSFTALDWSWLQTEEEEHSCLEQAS
The experiment in a line: IKK-2 Resin Enzyme Assay (Human IKK-2 Enzyme Assay). The conditions noted are these: human IKK-2, resin enzyme assay; read-out: IC50 (μM) hIKK-2. The class given is biochemical. The text has this: Materials: SAM^2™96 Biotin capture plates were from Promega. Anti-FLAG affinity resin, FLAG-peptide, NP-40 (Nonidet P-40), BSA, ATP, ADP, AMP, LPS (E. coli serotype 0111:B4), and dithiothreitol were obtained from Sigma Chemicals. Antibodies specific for NEMO (IKK-γ) (FL-419), IKK-1 (H-744), IKK-2(H-470) and IκBa(C-21) were purchased from Santa Cruz Biotechnology. Ni-NTA resin was purchased from Qiagen. Peptides were purchased from American Peptide Company. Protease inhibitor cocktail tablets were from Boehringer Mannheim. Sephacryl S-300 column was from Pharmacia LKB Biotechnology. Centriprep-10 concentrators with a molecular weight cutoff of 10 kDa and membranes with molecular weight cut-off of 30 kDa were obtained from Amicon. [γ-^33P] ATP (2500 Ci/mmol) and [γ-^32P] ATP (6000 Ci/mmol) were purchased from Amersham. The other reagents used were of the highest grade commercially available.
Cloning and Expression: cDNAs of human IKK-1 and IKK-2 were amplified by reverse transcriptase-polymerase chain reaction from human placental RNA (Clonetech). hlKK-1 was subcloned into pFastBac HTa (Life Technologies) and expressed as N-terminal His6-tagged fusion protein. The hlKK-2 cDNA was amplified using a reverse oligonucleotide primer which incorporated the peptide sequence for a FLAG-epitope tag at the C-terminus of the IKK-2 coding region (DYKDDDDKD). The hlKK-2:FLAG cDNA was subcloned into the baculovirus vector pFastBac. The rhIKK-2 ([…]) mutant was constructed in the same vector used for wild type rhIKK-2 using a QuikChange™ mutagenesis kit (Stratagene). Viral stocks of each construct were used to infect insect cells grown in 40 L suspension culture. […] Cell lysates were stored at −80° C. until purification of the recombinant proteins was undertaken as described below.
Enzyme Isolation: All purification procedures were carried out at 4° C. unless otherwise noted. Buffers used are: buffer A: 20 mM Tris-HCl, pH 7.6, containing 50 mM NaCl, 20 mM NaF, 20 mM β-Glycerophosphate, 500 μM sodium orthovanadate, 2.5 mM metabisulfite, 5 mM benzamidine, 1 mM EDTA, 0.5 mM EGTA, 10% glycerol, 1 mM DTT, 1× Complete™ protease inhibitors; buffer B: same as buffer A, except 150 mM NaCl, and buffer C: same as buffer A, except 500 mM NaCl.
Isolation of rhIKK-2 homodimer: A 10-liter culture of baculovirus-expressing IKK-2 tagged with FLAG peptide was centrifuged and the cell pellet (MOI=0.1 and 1=72 h) was re-suspended in buffer A. These cells were microfluidized, and centrifuged at 100,000×g for 45 min. Supernatant was passed over a G-25 column equilibrated with Buffer A. Protein peak was collected and incubated with anti-FLAG affinity resin on a rotator overnight in buffer B. The resin was washed in batch with 10-15 bed volumes of buffer C. Washed resin was poured into a column and rhIKK-2 homodimer was eluted using 5 bed volumes of buffer B containing FLAG peptide. 5 mM DTT, 0.1% NP-40 and BSA (concentrated to 0.1% in final amount) was added to the eluted enzyme before concentrating in using an Amicon membrane with a molecular weight cut-off of 30 kDa. Enzyme was aliquoted and stored at −80° C.
IKK-2 Resin Enzyme Assay: IKK-2 kinase activity was measured using a biotinylated IκBα peptide (Gly-Leu-Lys-Lys-Glu-Arg-Leu-Leu-Asp-Asp-Arg-His-Asp-Ser32-Gly-Leu-Asp-Ser36-Met-Lys-Asp-Glu-Glu) (American Peptide Co.). 20 μL of the standard reaction mixture contained 5 μM biotinylated IκBα peptide, 0.1 μCi/reaction [γ-^33P] ATP (Amersham) (about 1×10^5 cpm), 1 μM ATP (Sigma), 1 mM DTT (Sigma), 2 mM MgCl2 (Sigma), 2 mM MnCl2 (Sigma), 10 mM NaF (Sigma), 25 mM Hepes (Sigma) buffer, pH 7.6 and 20 μL enzyme solution and 10 μL inhibitor in a final volume of 50 μL. After incubation at 25° C. for 30 min, 150 μL resin (Dowex anion-exchange resin AG1X8 200-400 mesh) in 900 mM formate, pH 3.0 was added to each well to stop the reaction. Resin was allowed to settle for 1 h and 50 μL of supernatant was removed to a Micolite-2 flat bottom plate (Dynex). […]

The term IC50 denotes the concentration at which inhibition is half-maximal. Take `CC(=O)Nc1ccc(-c2cccc(-n3cc(NC(N)=O)c(C(N)=O)n3)c2)cc1` [Example 55, 1-[4′-(acetylamino)-1,1′-biphenyl-3-yl]-4-[(aminocarbonyl)amino]-1H-pyrazole-3-carboxamide]: the IC50 was determined as 1.04 µM.

For `N#Cc1cccc(-c2cccc(-n3cc(NC(N)=O)c(C(N)=O)n3)c2)c1` [Example 341, 4-[(aminocarbonyl)amino]-1-(3′-cyano-1,1′-biphenyl-3-yl)-1H-pyrazole-3-carboxamide], the IC50 worked out at 0.984 µM.

`Cc1cc(Sc2ccc(F)cc2)ccc1-n1cc(NC(N)=O)c(C(N)=O)n1` [Example 228, 4-[(aminocarbonyl)amino]-1-{4-[(4-fluorophenyl)thio]-2-methylphenyl}-1H-pyrazole-3-carboxamide]: the 50% inhibitory concentration (IC50) was above 20 µM.

For `NC(=O)Nc1cn(-c2ccc(S(=O)(=O)C3CCCC3)cc2)nc1C(N)=O` [Example 287, 1-(3-carbamoyl-1-(4-(cyclopentylsulfonyl)phenyl)-1H-pyrazol-4-yl)urea], the concentration for half-maximal inhibition (IC50) was 0.187 µM.

For `Cc1cnccc1-c1cccc(-n2cc(NC(N)=O)c(C(N)=O)n2)c1` [Example 69, 4-[(aminocarbonyl)amino]-1-[3-(3-methylpyridin-4-yl)phenyl]-1H-pyrazole-3-carboxamide], the IC50 worked out at 0.65 µM.

In the case of `NC(=O)Nc1cn(-c2ccc(-c3cccc(OCC(=O)O)c3)cc2)nc1C(N)=O` [Example 258, [(4′-{3-(aminocarbonyl)-4-[(aminocarbonyl)amino]-1H-pyrazol-1-yl}-1,1′-biphenyl-3-yl)oxy]acetic acid], the IC50 amounted to 1.02 µM.

`CNC(=O)CCc1cccc(-c2ccc(-n3cc(NC(N)=O)c(C(N)=O)n3)cc2)c1` [Example 381, 4-[(aminocarbonyl)amino]-1-{3′-[3-(methylamino)-3-oxopropyl]-1,1′-biphenyl-4-yl}-1H-pyrazole-3-carboxamide]: the IC50 amounted to 0.42 µM.

Consider `NC(=O)Nc1cn(-c2cccc(-c3ccncc3)c2)nc1C(N)=O` [Example 45, 4-[(aminocarbonyl)amino]-1-(3-pyridin-4-ylphenyl)-1H-pyrazole-3-carboxamide], for which the half-inhibitory concentration (IC50) was 0.31 µM.

Turning to `NC(=O)Nc1cn(-c2cccc(-c3cccc(N)c3)c2)nc1C(N)=O` [Example 50, 1-(3′-amino-1,1′-biphenyl-3-yl)-4-[(aminocarbonyl)amino]-1H-pyrazole-3-carboxamide], the IC50 worked out at 2.08 µM.

Consider `CSc1cccc(-c2ccc(-n3cc(C(N)=O)c(NC(N)=O)n3)cc2)c1` [Example 118], for which the IC50 was 3.07 µM.

As to `NC(=O)Nc1cn(-c2ccc(Sc3cccc(Cl)c3)cc2)nc1C(N)=O` [Example 289, 1-(1-(4-(3-chlorophenylthio)phenyl)-3-carbamoyl-1H-pyrazol-4-yl)urea], the IC50 was 10.6 µM.

`N#CCOc1ccccc1-c1cccc(-n2cc(NC(N)=O)c(C(N)=O)n2)c1` [Example 176, 4-[(aminocarbonyl)amino]-1-[2′-(cyanomethoxy)-1,1′-biphenyl-3-yl]-1H-pyrazole-3-carboxamide]: the concentration for half-maximal inhibition (IC50) amounted to 0.18 µM.

On to `CNC(=O)c1ccc(-c2ccc(-n3cc(NC(N)=O)c(C(N)=O)n3)cc2)cc1F` [Example 152, 4-[(aminocarbonyl)amino]-1-{3′-fluoro-4′-[(methylamino)carbonyl]-1,1′-biphenyl-4-yl}-1H-pyrazole-3-carboxamide], for which the IC50 was 0.11 µM.

In the case of `CC(C)(C)NC(=O)c1cccc(-c2ccc(-n3cc(NC(N)=O)c(C(N)=O)n3)cc2)c1` [Example 31, 4-[(aminocarbonyl)amino]-1-{3′-[(tert-butylamino)carbonyl]-1,1′-biphenyl-4-yl}-1H-pyrazole-3-carboxamide], the half-maximal inhibitory concentration (IC50) was 4.79 µM.

Consider `NC(=O)Nc1cn(-c2ccc(Sc3ccccc3F)cc2)nc1C(N)=O` [Example 190, 1-(1-(4-(2-fluorophenylthio)phenyl)-3-carbamoyl-1H-pyrazol-4-yl)urea], for which the IC50 came to 0.831 µM.

On to `CC1(C)OB(c2ccc(-n3cc(NC(N)=O)c(C(N)=O)n3)cc2)OC1(C)C` [Example 260, 4-[(aminocarbonyl)amino]-1-[4-(4,4,5,5-tetramethyl-1,3,2-dioxaborolan-2-yl)phenyl]-1H-pyrazole-3-carboxamide], for which the IC50 came out at 0.512 µM.

Turning to `NC(=O)Nc1nn(-c2ccc(-c3cc(Cl)cc(Cl)c3)cc2)cc1C(N)=O` [Example 137], the IC50 is above 20 µM.

As for `COc1ccc(-c2cccc(-n3cc(NC(N)=O)c(C(N)=O)n3)c2)cc1F` [Example 359, 4-[(aminocarbonyl)amino]-1-(3′-fluoro-4′-methoxy-1,1′-biphenyl-3-yl)-1H-pyrazole-3-carboxamide], the IC50 is 1.18 µM.

`NC(=O)Nc1cn(-c2ccc(S(=O)(=O)c3ccc(F)cc3)cc2F)nc1C(N)=O` [Example 378, 1-(1-(4-(4-fluorophenylsulfonyl)-2-fluorophenyl)-3-carbamoyl-1H-pyrazol-4-yl)urea]: the IC50 was 0.315 µM.

`N#CCOc1ccccc1-c1ccc(-n2cc(NC(N)=O)c(C(N)=O)n2)cc1` [Example 167, 4-[(aminocarbonyl)amino]-1-[2′-(cyanomethoxy)-1,1′-biphenyl-4-yl]-1H-pyrazole-3-carboxamide]: the IC50 was 0.5 µM.

On to `NC(=O)Nc1cn(-c2ccc(Sc3ccccc3F)cc2F)nc1C(N)=O` [Example 211, 1-(1-(4-(2-fluorophenylthio)-2-fluorophenyl)-3-carbamoyl-1H-pyrazol-4-yl)urea], for which the half-maximal inhibitory concentration (IC50) came to 10.5 µM.

On to `NC(=O)Nc1cn(-c2ccc(-c3ccc(C(=O)NCc4cccc(F)c4)c(F)c3)cc2)nc1C(N)=O` [Example 156, 4-[(aminocarbonyl)amino]-1-(3′-fluoro-4′-{[(3-fluorobenzyl)amino]carbonyl}-1,1′-biphenyl-4-yl)-1H-pyrazole-3-carboxamide], for which the IC50 is 0.61 µM.

In the case of `N#CCCNC(=O)c1ccc(-c2cccc(-n3cc(NC(N)=O)c(C(N)=O)n3)c2)cc1` [Example 84, 4-[(aminocarbonyl)amino]-1-(4′-{[(2-cyanoethyl)amino]carbonyl}-1,1′-biphenyl-3-yl)-1H-pyrazole-3-carboxamide], the IC50 was found to be 2.06 µM.
